For experiment [1], the system named is Angiotensin Receptor. The experiment can be described thus: Screening Potential Angiotensin Receptor Antagonists in Salt-Depleted Normotensive Rats (blood pressure after oral dosing). Format: in vivo, Sprague-Dawley rats.
Experiment [2] deals with plasma renin activity (PRA). The experiment can be described thus: Plasma renin activity by Radioimmuno Assay of Angiotensin I in salt-depleted rats. It is filed as in vivo, Sprague-Dawley rats. The conditions noted are these: salt-depleted animals; about 7.4 after salt depletion before treatment. The protocol: Method: Male 350-450 g Sprague-Dawley rats are implanted with teflon microcannulae via the middle caudal artery under 20 mg/kg intravenous brevital anesthesia and permitted a 4-7 day surgical recovery period. Throughout recovery and testing animals are individually housed unrestrained in standard rat metabolism cages and receive continuous 0.5 mL/hour intra-arterial 0.25 N saline infusion through a spring-shielded swivelling tether connected to an infusion/blood pressure recording system to maintain arterial cannula patency. Animals are maintained on Low Sodium (0.03%) Pruina Rat Chow #5881 throughout the study. […] Three hours after the second furosemide dose, rats are given test compound uniformly suspended in 1% methylcellulose (n=3/dose level) or 1 mL 1% methylcellulose vehicle (n=3) orally by gavage and blood pressure is continuously recorded for 24 h using a Buxco computerized data recording system. […]
Interpretation: Prior to salt depletion, normotensive rats typically show a plasma renin activity (PRA), measured by Radioimmuno Assay (RIA) of Angiotensin I (as ng Angiotensin I/mL plasma/hour) and yields a RIA of 0.7. […]

Experiment [3] relates to Angiotensin Receptor. The experiment in a line: Screening Potential Angiotensin Receptor Antagonists in Salt-Depleted Normotensive Rats (blood pressure after oral dosing). The conditions noted are these: for Antihypertensive Activity (p.o.): active @ dose: oral, salt-depleted normotensive rats, active = MAP decrease of 10 or more mmHg vs concurrent control. It is filed as in vivo, Sprague-Dawley rats. The text has this:
Test Procedure for Screening Potenital Angiotensin Receptor Antagonists in Salt-Depleted Normotensive Rats
Purpose: This test is designed to detect hypotensive effects of a compound after oral dosing in normotensive animals made renin-dependent by salt depletion. [Wong, P. C., Price, W. A., Chiu, A. T., Duncia, J. V., Carini, D. J., Wexler, R. R., Johnson, A. L., and Timmermans, P. B. M. W. M.: Nonpeptide angiotensin II receptor antagonists. VIII. […] J. Pharmacol. Exp. Ther., 252,726 (1990)]
Solution Preparation: Oral 50 mg/kg furosemide doses are prepared from 10 mg/mL solutions of the intravenous pharmaceutical preparation (Lasix injection, Hoechst-Roussel Pharmaceutical). Test compound is uniformly suspended in 1% methylcellulose.
Method: Male 350-450 g Sprague-Dawley rats are implanted with teflon microcannulae via the middle caudal artery under 20 mg/kg intravenous brevital anesthesia and permitted a 4-7 day surgical recovery period. Throughout recovery and testing animals are individually housed unrestrained in standard rat metabolism cages and receive continuous 0.5 mL/hour intra-arterial 0.25 N saline infusion through a spring-shielded swivelling tether connected to an infusion/blood pressure recording system to maintain arterial cannula patency. Animals are maintained on Low Sodium (0.03%) Pruina Rat Chow #5881 throughout the study. After the recovery period animals are given oral 50 mg/kg furosemide (Lasix, Hoechst-Roussel Pharmaceutical) doses on two consecutive days to produce marked diuresis and plasma volume depletion that makes maintenance of normal blood pressure highly dependent on function of the renin-angiotensin-aldosteronesystem. Three hours after the second furosemide dose, rats are given test compound uniformly suspended in 1% methylcellulose (n=3/dose level) or 1 mL 1% methylcellulose vehicle (n=3) orally by gavage and blood pressure is continuously recorded for 24 h using a Buxco computerized data recording system. Compound-induced changes in blood pressure are compared to concurrent vehicle control blood pressures in order to detect drug effect.
Interpretation: Prior to salt depletion, normotensive rats typically show a plasma renin activity (PRA), measured by Radioimmuno Assay (RIA) of Angiotensin I (as ng Angiotensin I/mL plasma/hour) and yields a RIA of 0.7. After the salt-depletion protocol PRA values taken 3 hour after the furosemide dose have risen to about 7.4. […] PRA is increased by this DuP-753 treatment to about 41.4.
Compounds that decrease blood pressure 10 or more mmHg (MAP) compared to concurrent control after oral dosing are considered active in this test. Maximum possible response is about-35 mmHg. See results in Table 2.

Experiment [4] has as its target T1, angiotensin II-induced vasoconstriction (Oryctolagus cuniculus, UniProt P34976).
T1 sequence (P34976 1-359): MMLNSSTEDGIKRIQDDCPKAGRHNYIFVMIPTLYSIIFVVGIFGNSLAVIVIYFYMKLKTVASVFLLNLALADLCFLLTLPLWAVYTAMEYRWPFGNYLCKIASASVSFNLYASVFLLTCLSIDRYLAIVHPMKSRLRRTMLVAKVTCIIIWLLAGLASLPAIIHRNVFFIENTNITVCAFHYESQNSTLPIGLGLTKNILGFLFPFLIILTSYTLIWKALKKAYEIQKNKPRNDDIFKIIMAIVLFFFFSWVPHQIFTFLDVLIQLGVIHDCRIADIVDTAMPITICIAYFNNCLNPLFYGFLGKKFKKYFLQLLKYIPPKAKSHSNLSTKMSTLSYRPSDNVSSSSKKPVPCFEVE
The experiment in a line: Angiotensin II Antagonist Dose-Response in Rabbit Thoracic Aorta (Schild plot). Also noted: from tissue; host or cells: thoracic aorta rings of New Zealand white rabbits; species or system New Zealand white rabbits. To be noted: read-out: pA2 (converted). The text has this:
Angiotensin II Antagonist Dose-Response in Rabbit Thoracic Aorta Purpose: […] [Chiu, […]., Price, W. A., Wong, […]., Duncia, […]., Yoo, S. E., Johnson, A. L., and […].: Nonpeptide angiotensin II receptor antagonists. VII. Cellular and Biochemical pharmacology of […], an orally active antihypertensive agent. J. Pharmacol. Exp. Ther., 252,726 (1990)]. Solution Preparation: […] For each test an aliquot is freshly thawed and serially diluted with Krebs bicarbonate buffer to provide stock solutions of angiotensin II in buffer for addition to the tissue baths. […] Procedure: 1.8 to 2.3 kg New Zealand white rabbits are sacrificed with an intravenous sodium pentobarbital overdose and the thoracic aorta gently dissected free from the aortic root to the level of the diaphragm, into ice cold Krebs bicarbonate buffer. The aorta is gently freed of clots and adventitia and cleanly cut into 5 mm segments. Each ring is suspended from a Gould isotonic force transducer in a tissue bath containing 15 mL oxygenated Krebs bicarbonate buffer regulated at 37° C. […] The test compound is then given to separate rings at different antagonist concentrations (n=2 rings/test concentration) in order to asses antagonist dose-response. The angiotensin II cumulative dose-response is then repeated in the presence of the test compound. Analysis: Angiotensin II vasoconstrictor tension in grams is expressed as a percent of maximal contraction for the before and after test compound angiotensin II dose-responses. […] See results in Table 2.

For experiment [5], the target named is T1, angiotensin II-induced vasoconstriction. The experiment in a line: Inhibition of Angiotensin II Dose-Response in Rabbit Thoracic Aorta. Also noted: from tissue; host or cells: thoracic aorta rings of New Zealand white rabbits; species or system New Zealand white rabbits. The conditions noted are these: read-out: % Inh @ 10^-5 M. As for the experimental part:
VII. Cellular and Biochemical pharmacology of DuP 753, an orally active antihypertensive agent. J. Pharmacol. Exp. Ther., 252, 726 (1990)]
Test compounds are diluted in dimethylsulfoxide vehicle such that a 50 μL addition to the tissue bath produces a final bath concentration of 1×10^-5 M compound in Krebs-bicarbonate buffer (baths contain 15 mL Krebs-bicarbonate buffer).
Procedure: 1.8 to 2.3 kg New Zealand white rabbits are sacrificed with an intravenous sodium pentobarbital overdose and the thoracic aorta gently dissected free from the aortic root to the level of the diaphragm, into ice cold Krebs bicarbonate buffer. The aorta is gently freed of clots and adventitia and cleanly cut into 5 mm segments. Each ring is suspended from a Gould isotonic force transducer in a tissue bath containing 15 mL oxygenated Krebs bicarbonate buffer regulated at 37° C. Initial tenison is adjusted to 4.0 g and equilibrated over three 20-minute wash periods with fresh Krebs-bicarbonate buffer to achieve a baseline tension of 3.0 g. […] […] […] In addition, since the test compounds are dissolved in DMSO, DMSO alone is tested in two rings as a vehicle control in each screening experiment.

Data on 5 compounds can be found in patent US5246940A, “Substituted N-biphenylyl lactams” (Ortho Pharmaceutical Corporation, priority 1993, dated 1993).

Structures can show the parent of a compound that is named as a salt.

On to `CCCCc1nc(Cl)c(CO)n1Cc1ccc(-c2ccccc2-c2nn[nH]n2)cc1` [DuP-753], for which the “blood pressure response in normotensive rats that have not been salt-depleted” value with Angiotensin Receptor [1] was “does not change”. For the same compound, the “plasma renin activity (PRA) after treatment” value in experiment [2] is “about 41.4 ng Angiotensin I/mL plasma/hour”. Further, the “blood pressure decrease (mean arterial pressure, MAP)” value in the experiment with Angiotensin Receptor [3] (salt-depleted animals, typical response) is given as “about 35 mmHg”.

On to `CCOC(=O)C=C1CC(C)(C)CC(=O)N1Cc1ccc(-c2ccccc2-c2nnn[nH]2)cc1` [s, 6-Carbethoxymethyliden-4,4-dimethyl-1-[4-(2-tetrazolophenyl)benzyl]piperidin-2-one Pyridinium salt], for which the Kb in experiment [4] is 39.8 nM. In experiment [5], the inhibition at 10 µM came out at 100%. Further, in the experiment with Angiotensin Receptor [3], the “Antihypertensive Activity (p.o.): active @ dose” value was 30 mpk.

Consider `CCOC(=O)C=C1CC2(CCCC2)CC(=O)N1Cc1ccc(-c2ccccc2-c2nnn[nH]2)cc1` [t, 6-Carbethoxymethyliden-4-spirocyclopentyl-1-[4-(2-tetrazolophenyl)benzyl]piperidin-2-one Pyridinium Salt], for which the Kb in experiment [4] is 14.1 nM. Also, the inhibition at 10 µM in experiment [5] is 100%. The “Antihypertensive Activity (p.o.): active @ dose” value in the experiment with Angiotensin Receptor [3] is listed as 30 mpk.

On to `CCOC(=O)C=C1C2C3C=CC(CC3)C2C(=O)N1Cc1ccc(-c2ccccc2-c2nnn[nH]2)cc1` (stereo not drawn) [u, 3-Carbethoxymethyliden-2-[4-(2-tetrazolophenyl)benzyl]-4,7-endoethylen-1,3,4,7-tetrahydro-1-oxoisoindole], for which, in experiment [4], the Kb is 6.92 nM. The inhibition at 10 µM in experiment [5] was 99%. Besides, the “Antihypertensive Activity (p.o.): active @ dose” value in the experiment with Angiotensin Receptor [3] turned out to be 30 mpk.

For the compound `CCOC(=O)C=C1C2C3CCC(C3)C2C(=O)N1Cc1ccc(-c2ccccc2-c2nnn[nH]2)cc1` (stereo not drawn) [z, 3-Carbethoxymethyliden-2-[4-2-(tetrazolophenyl)benzyl]-4,7-endomethylen-1,3,4,5,6,7-hexahydro-1-oxoisoindole], in experiment [4], the Kb is 1.05 nM. Also, the inhibition at 10 µM in experiment [5] was 100%. Also, in the experiment on Angiotensin Receptor [3], the “Antihypertensive Activity (p.o.): active @ dose” value is recorded as 30 mpk.
